Patent US5236936A, “Pyridine compounds which are useful as angiotensin II receptor antagonists” (Imperial Chemical Industries PLC, priority 1991, dated 1993)

What was measured:
[1] = system: angiotensin II-induced pressor responses; test: Test C: antagonism of angiotensin II-induced pressor responses in terminally-anaesthetised or conscious rats; assay type: in vivo; conditions: iv, rat, i.v. administration
Procedure: Test C: This in vivo test involves using terminally-anaesthetised or conscious rats in which an arterial catheter has been implanted under anaesthesia for the measurement of changes in blood pressure. The AII antagonistic effects of the test compound following oral or parenteral administration, are assessed against angiotensin II-induced pressor responses. To ensure that the effect is specific, the effect of the test compound on vasopressin-induced pressor responses may also be determined in the same preparation.

[2] = biological target: T1, AII receptors (guinea pig adrenal gland cell surface membrane fraction) (Cavia porcellus, UniProt Q9WV26); test: Test A: displacement of radiolabelled AII binding to guinea pig adrenal gland cell surface membranes; conditions: read-out: IC50 (concentration for 50% displacement of radiolabelled AII binding)
T1 construct: from tissue; host or cells: guinea pig adrenal gland, cell surface membrane fraction
T1 sequence (Q9WV26 1-359): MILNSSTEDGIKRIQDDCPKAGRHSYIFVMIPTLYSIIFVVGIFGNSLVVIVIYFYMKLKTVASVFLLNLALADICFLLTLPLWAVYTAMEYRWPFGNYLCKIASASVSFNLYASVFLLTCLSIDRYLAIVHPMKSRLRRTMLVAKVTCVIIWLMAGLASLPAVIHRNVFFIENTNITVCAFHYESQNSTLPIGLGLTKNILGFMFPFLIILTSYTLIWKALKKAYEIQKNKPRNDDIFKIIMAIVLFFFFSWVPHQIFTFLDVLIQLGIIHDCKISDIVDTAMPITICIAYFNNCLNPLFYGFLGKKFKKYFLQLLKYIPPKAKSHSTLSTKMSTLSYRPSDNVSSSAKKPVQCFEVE
Procedure: Test A: This in vitro procedure involves the incubation of the test compound initially at a concentration of 100 micromolar (or less) in a buffered mixture containing fixed concentrations of radiolabelled AII and a cell surface membrane fraction prepared from a suitable angiotensin target tissue. In this test, the source of cell surface membranes is the guinea pig adrenal gland which is well known to respond to AII. Interaction of the radiolabelled AII with its receptors (assessed as radiolabel bound to the particulate membrane fraction following removal of unbound radiolabel by a rapid filtration procedure such as is standard in such studies) is antagonized by compounds which also bind to the membrane receptor sites and the degree of antagonism (observed in the test as displacement of membrane-bound radioactivity) is determined readily by comparing the receptor-bound radioactivity in the presence of the test compound at the specified test concentration with a control value determined in the absence of the test compound. Using this procedure compounds showing at least 50% displacement of radiolabelled AII binding at a concentration of 10^-4 M are retested at lower concentrations to determine their potency. […]

`CCc1cc(OCc2ccc(-c3ccccc3-c3nnn[nH]3)cc2)c(-c2ccncc2)c(C)n1.Cl.Cl` [Example 3, 6-ethyl-2-methyl-3-(4-pyridyl)-4-[(2'-(1H-tetrazol-5-yl)biphenyl-4-yl)methoxy]pyridine dihydrochloride] was tested, and the ED50 [1] was 0.18 mg/kg and the IC50 [2] was 5.5 nM.
